Measurements published in patent publication US8552048B2, “Phosphoramidate alkylator prodrugs for the treatment of cancer” (Threshold Pharmaceuticals, Inc., priority 2006, dated 2013).
Values joined by “and” are separate entries in the source; they are usually repeats but may differ in a detail not shown here. Equal entries are not always repeated. Where two headings read alike, the source gives them in different places.

Experiment: Pharmacokinetics in cynomolgus monkeys (20 mg/kg i.v.)
Type: in vivo
Conditions: for Vd: read-out: Vss
Description: Pharmacokinetic studies were performed in male CD-1 (50 mg/kg i.p. or orally (p.o.)) or female nude mice (50 mg/kg i.v. or i.p.), male Sprague-Dawley rats (1, 5, 20 and 50 mg/kg i.v. and 100 mg/kg, p.o.), beagle dogs (20 mg/kg, i.v.) and cynomologus monkeys (20 mg/kg i.v.). Plasma TH302 concentrations were analyzed using a LC/MS method and the pharmacokinetic parameters computed using a noncompartmental method. Interspecies scaling was performed according to standard methods.
Individual and mean pharmacokinetic parameters of TH302 following intravenous administration at a dose of 20 mg/kg (N=3) is shown in Table 7.

[1] = cynomolgus monkey, plasma, iv, 20 mg/kg, cynomolgus monkeys, Mean (N=3)
[2] = cynomolgus monkey, plasma, iv, 20 mg/kg, monkeys
[3] = cynomolgus monkeys, individual animals, 20 mg/kg

**Q.** With `Cn1c(COP(=O)(NCCBr)NCCBr)cnc1[N+](=O)[O-]` [TH302] as the compound, how does the AUC(0-t) [1] read?
**A.** Its AUC(0-t) is 3.14 µg·h/mL.

**Q.** What about the clearance [1] of the same compound?
**A.** Its clearance is 7.66 L/h/kg.

**Q.** And the Cmax (cynomolgus monkey, plasma, iv, 20 mg/kg, cynomolgus monkeys, Mean (N=3), read-out: Cmax)?
**A.** Its Cmax is 20.7 µg/mL.

**Q.** What about the MRT (cynomolgus monkey, plasma, iv, 20 mg/kg, cynomolgus monkeys, Mean (N=3), read-out: MRT) of the same compound?
**A.** The MRT was 19.8 min.

**Q.** What about the Vd [1] of the same compound?
**A.** The Vd was 2.92 L/kg.

**Q.** And the Cmax (cynomolgus monkey, plasma, iv, 20 mg/kg, cynomolgus monkeys, individual animals, read-out: Cmax)?
**A.** Its Cmax is 15.9 µg/mL.

**Q.** What about the MRT (cynomolgus monkey, plasma, iv, 20 mg/kg, cynomolgus monkeys, individual animals, read-out: MRT) of the same compound?
**A.** Its MRT is 28.6 min.

**Q.** What about the clearance [2] of the same compound?
**A.** The clearance was 7.66 L/h/kg.

**Q.** What about the Vd [2] of the same compound?
**A.** Its Vd is 2.92 L/kg.

**Q.** And the Tmax (cynomolgus monkey, plasma, iv, cynomolgus monkeys, individual animals)?
**A.** The Tmax was 1.98 min.

**Q.** And the half-life (cynomolgus monkey, plasma, iv, monkeys, read-out: Plasma t1/2)?
**A.** The half-life was 24.9 min.

**Q.** What about the Vβ (cynomolgus monkeys, Mean (N=3)) of the same compound?
**A.** Its Vβ is 6.17 L/kg.

**Q.** What about the half-life (cynomolgus monkeys, Mean (N=3)) of the same compound?
**A.** The half-life was 24.9 min.

**Q.** What about the AUClast [3] of the same compound?
**A.** The AUClast was 1.519 µg·h/mL and 3.961 µg·h/mL and 3.932 µg·h/mL.

**Q.** And the Cl [3]?
**A.** Its Cl is 13.0 L/h/kg and 4.90 L/h/kg and 5.07 L/h/kg.

**Q.** What about the Cmax [3] of the same compound?
**A.** The Cmax was 28.5 µg/mL and 17.6 µg/mL.

**Q.** And the MRT [3]?
**A.** The MRT was 14.7 min and 16.1 min.

**Q.** What about the Vss [3] of the same compound?
**A.** Its Vss is 6.18 L/kg and 1.20 L/kg and 1.36 L/kg.

**Q.** And the Vβ [3]?
**A.** The Vβ was 15.5 L/kg and 1.37 L/kg and 1.65 L/kg.

**Q.** And the half-life [3]?
**A.** Its half-life is 49.6 min and 11.6 min and 13.6 min.
